For the assay, the system named is recombinant human IL-8 type a and b receptors. Nature of the assay: Receptor binding assays ([125I] IL-8 / 125I Gro-a, CHO membranes). The note with it: 125I IL-8 (0.25 nM) or 125I Gro-a; IL-8Ra or IL-8Rb membranes from Chinese hamster ovary cells; receptor subtype not specified for the result. The protocol: The IL-8, and Gro-a chemokine inhibitiory effects of compounds of the present invention were determined by the following in vitro assay:
[^125 I] IL-8 (human recombinant) is obtained from Amersham Corp., Arlington Heights, Ill., with specific activity 2000 Ci/mmol. Gro-a is obtained from NEN-New England Nuclear. All other chemicals are of analytical grade. High levels of recombinant human IL-8 type a and b receptors are individually expressed in Chinese hamster ovary cells as described previously (Holmes, et al., Science, 1991, 253, 1278). The Chinese hamster ovary membranes are homogenized according to a previously described protocol (Haour. et al., J Biol Chem., 249 pp 2195-2205 (1974)). Except that the homogenization buffer is changed to 10 mM Tris-HCL, 1 mM MgSO4, 0.5 mM EDTA (ethylene-diaminetetra-acetic acid), 1 mMPMSF (a-toluenesulphonyl fluoride), 0.5 mg/L Leupeptin, pH 7.5. Membrane protein concentration is determined using Pierce Co. micro-assay kit using bovine serum albumin as a standard. All assays are performed in a 96-well micro plate format. Each reaction mixture contains ^125 I IL-8 (0.25 nM) or ^125 I Gro-a and 0.5 μg/mL of IL-8Ra or 1.0 μg/mL of IL-8Rb membranes in 20 mM Bis-Trispropane and 0.4 mM Tris HCl buffers, pH 8.0, containing 1.2 mM MgSO4, 0.1 mM EDTA, mM NaCl and 0.03% CHAPS. […] The filter is then dried and counted on the Betaplate liquid scintillation counter. […]

From patent publication US6214881A, “IL-8 receptor antagonists” (SmithKline Beecham Corporation, priority 1999, dated 2001) come the findings set out here.

Molecules are shown by their SMILES.

In the case of `Cc1ccc(S(=O)(=O)NC(=O)c2cccc(NC(=O)Nc3ccccc3Br)c2)cc1` [Example 1, N-[3-(4-methylphenylsulfonyl)carboxamido]-N'-(2-bromophenyl)urea], the “activity in receptor binding assay (inhibition of IL-8 / Gro-a binding)” value is “active”.
